# Measured values: PMC5571359, “Screening the Medicines for Malaria Venture Pathogen Box across Multiple Pathogens Reclassifies Starting Points for Open-Source Drug Discovery” (Antimicrobial Agents and Chemotherapy, 2017)
# Where two headings read alike, the source gives them in different places.
# Assays:
# HEK293 cells = assay: HEK293 resazurin cell cytotoxicity assay; details: Homo sapiens; for inhibition at 20 µM: HEK293, read-out: HEK % Inhibition 20uM/IC50 Discovery Biology
# [1] = system: NF54-pfs16-LUC-GFP stage IV gametocytes; assay: Plasmodium falciparum late stage gametocyte (LSG) image-based assay; format: cell-based; details: Plasmodium falciparum
# [2] = system: Plasmodium falciparum 3D7 asexual blood stage; assay: microbe, parasite or virus in culture
# P. falciparum ABS = details: cited from earlier work; for IC50: read-out: Pf 3D7 Pbox IC50; for EC50: ChEMBL Data, P. falciparum, read-out: TCMDC (ref 93) EX50
# HepG2 = details: cited from earlier work; for CC50: read-out: HepG2 PBox CC50 µM, HepG2 cytotoxicity; for CC50 / HepG2 PBox CC20: ref PBox supporting information
# [3] = system: T. b. brucei 427 bloodstream trypanosomes; assay: T. b. brucei resazurin viability assay; format: cell-based, Trypanosoma brucei brucei; details: Trypanosoma brucei
# [4] = system: T. cruzi intracellular amastigotes; assay: Intracellular anti-Trypanosoma cruzi image-based assay (amastigotes); format: cell-based; details: Trypanosoma cruzi; intracellular amastigotes, Discovery Biology; read-out: T cruzi Discovery Biology IC50
# [5] = system: L. donovani MHOM/IN/80/DD8 intracellular amastigotes; assay: Leishmania donovani intracellular amastigote assay in THP-1 cells; format: cell-based; details: Leishmania donovani, THP-1; Discovery Biology; some values carry an asterisk (not explained in the part shown); read-out: L, donovani Discovery Biology IC50 µM
# [6] = NF54, read-out: Antiplasmodial IC50 (GAM / LSG), PBox compounds, stage IV gametocytes, single determination
# [7] = 3D7, read-out: Antiplasmodial IC50 (ABS)
# [8] = 3D7, read-out: Antiplasmodial IC50 (ABS), PBox compounds, P. falciparum 3D7
# [9] = HEK293, read-out: HEK % Inhibition 20uM/IC50 Discovery Biology (IA)
# [10] = read-out: T b.brucei Discovery Biology IC50
# [11] = P. falciparum 3D7, ref PBox supporting information
# [12] = NF54, read-out: Pf Stage IV GAMS Discovery Biology IC50 µM, stage IV gametocytes, Discovery Biology
# [13] = 3D7, read-out: activity against P. falciparum (novel antiplasmodial actives of the tuberculosis set)
# [14] = 3D7, read-out: Pf 3D7 Discovery Biology IC50 µM, P. falciparum 3D7 asexual blood stage, Discovery Biology
# [15] = HEK293, read-out: HEK % Discovery Biology IC50 uM
compound,measurement,setting,value
CO/C=C(/C(=O)OC)c1ccccc1Oc1cc(Oc2ccccc2C#N)ncn1 [MMV021057],inhibition at 20 µM,HEK293 cells,71%
same,IC50,[1]; [6],0.03 µM
same,IC50,[2]; [7],0.04 µM
same,IC50,"[2]; 3D7, read-out: Pf 3D7 Discovery Biology IC50 µM",0.035 µM
same,IC50,"P. falciparum ABS; Pf 3D7, ref Pathogen Box supporting information",53.6 nM
Cc1cc(NCCc2ccccc2)nc(NC(=N)Nc2ccc(Cl)cc2)n1 [MMV021660],inhibition at 20 µM,HEK293 cells,100%
same,IC50,[2]; [8],0.16 µM
same,CC50,HepG2,6.5 µM
same,EC50,P. falciparum ABS; TCMDC set,230 nM
c1cncc(NCc2ccc(-c3cc4ccncc4cc3OC3CCNCC3)s2)c1 [MMV023969],inhibition at 20 µM,HEK293 cells,86%
same,IC50,[2]; [8],0.59 µM
same,CC50,HepG2,8 µM
same,EC50,P. falciparum ABS; TCMDC set,980 nM
Cc1ccc2[nH]c(C3CCCNC3)c(-c3ccncc3)c2c1 (stereo not shown) [MMV024311],IC50,[2]; [8],0.75 µM
same,IC50,[3]; read-out: T b.brucei Discovery Biology IC50 µM,5.15 µM
same,CC50,HepG2,12.7 µM
same,EC50,P. falciparum ABS; TCMDC set,1230 nM
O=C(NCCc1ccccc1)c1cc(-c2cccnc2)cnc1NCC1CC1 [MMV026490],IC50,HEK293 cells; [9],> 20 µM
same,IC50,[3]; [10],6.02 µM
same,EC50,P. falciparum ABS,850 nM
same,IC50,P. falciparum ABS; [11],1290 nM
COc1cccc(-n2nnnc2S(C)(=O)=O)c1 [MMV272144],inhibition at 20 µM,HEK293 cells,100%
same,IC50,[1]; [12],1.92 µM
same,IC50,[3]; [10],4.12 µM
same,CC50,HepG2,1.7 µM
CC(C)(C)c1cnc(NC(=O)c2ccccc2O)s1 [MMV495543],IC50,[3]; [10],5.45 µM
same,CC50,HepG2,47.6 µM
Brc1cncc(-c2cc(NCCCn3ccnc3)nc(-c3ccccc3)n2)c1 [MMV661713],IC50,[2]; [8],1.49 µM
same,IC50,[2]; [13],< 2 µM
Cc1[nH]c2cc(F)cc(F)c2c(=O)c1-c1ccc(Oc2ccc(OC(F)(F)F)cc2)cc1 [MMV671636],IC50,HEK293 cells; [9],> 20 µM
same,IC50,[2]; [7],1.01 µM
same,HepG2 PBox CC20 μMc,HepG2; ref Pbox supporting information,>80 µM
COc1ccc(-c2nn(C(C)C)c3ncnc(N)c23)cc1OC [MMV675993],inhibition at 20 µM,HEK293 cells,73%
same,IC50,"[1]; NF54, read-out: Pf Stage IV GAMS Discovery Biology IC50, stage IV gametocytes",1.95 µM
same,IC50,"[2]; 3D7, read-out: Pf 3D7 Discovery Biology IC50, P. falciparum 3D7 asexual blood stage",1.07 µM
same,HepG2 PBox CC20,HepG2,1.6 µM
CS(=O)(=O)N1CCC(Cn2nc(Cc3cccc4ccccc34)c3c(N)ncnc32)CC1 [MMV676050],inhibition at 20 µM,HEK293 cells,77%
same,HepG2 PBox CC20,HepG2,53 µM
Nc1ncc(Br)cc1-c1nc2cc(Cl)cnc2[nH]1 [MMV676358],IC50,HEK293 cells; [9],> 20 µM
same,IC50,P. falciparum ABS; [11],1500 nM
CCC(Sc1nc2ccccc2o1)C(=O)Nc1nccs1 (stereo not shown) [MMV676383],inhibition at 20 µM,HEK293 cells,88%
same,IC50,[1]; [6],1.37 µM
same,IC50,[2]; [8],4.43 µM
same,IC50,[2]; [13],4 to 5 µM
same,CC50,HepG2,13 µM
COc1cccc(-n2nnnc2S(=O)(=O)Cc2ccccc2)c1 [MMV676388],IC50,[1]; [6],2.99 µM
same,IC50,[2]; [8],4.93 µM
same,IC50,[2]; [13],4 to 5 µM
CC(Oc1ccccc1)C(=O)Nc1nc(-c2ccccn2)cs1 (stereo not shown) [MMV676411],inhibition at 20 µM,HEK293 cells,81%
same,IC50,[1]; [12],1.92 µM
same,IC50,[2]; [14],5 µM
same,IC50,[3]; [10],3.22 µM
same,CC50,HepG2,29.3 µM
CC(C)c1ncc(-c2ccncc2)c([C@H]2CC[C@H](CNC(=O)c3cccnc3)CC2)n1 [MMV676442],IC50,HEK293 cells; [9],> 20 µM
same,EC50,P. falciparum ABS,780 nM
same,IC50,P. falciparum ABS; [11],840 nM
O=C(Nc1nc(-c2ccccn2)cs1)c1cncn1-c1ccccc1 [MMV676512],IC50,HEK293 cells; [15],2.83 µM
same,IC50,[3]; [10],2.87 µM
same,CC50,HepG2,3.8 µM
same,IC50,[4],4.12 µM
Cn1c(=O)c2c(S(C)(=O)=O)snc2n(C)c1=O [MMV687251],inhibition at 20 µM,HEK293 cells,100%
same,CC50,HepG2,1.1 µM
COc1cccc(-c2nc3c(N4CCCC4)cccc3n2CC2CCCN2)n1 (stereo not shown) [MMV687703],inhibition at 20 µM,HEK293 cells,76%
same,IC50,[1]; [6],3.83 µM
same,IC50,[2]; [8],1.33 µM
same,IC50,[2]; [13],< 2 µM
same,CC50,HepG2,25 µM
CC1(C)Cc2c(c(N3CCOCC3)nc3snc(Br)c23)CO1 [MMV687794],IC50,HEK293 cells; [9],> 20 µM
same,IC50,P. falciparum ABS; [11],290 nM
O=C(Nc1ccc(C(F)(F)F)c(C(F)(F)F)c1)c1cc(Cl)ccc1O [MMV687807],IC50,HEK293 cells; [15],1.99 µM
same,IC50,[1]; [12],5.07 µM
same,IC50,[5],5.06 µM
same,IC50,[2]; [14],1.82 µM
same,IC50,[3]; [10],0.66 µM
same,CC50,HepG2,0.65 µM
CN1CCN(CCCOc2ncc(Nc3ncc(-c4ccc(C(F)(F)F)c(F)c4)nc3C(N)=O)cn2)CC1 [MMV687812],inhibition at 20 µM,HEK293 cells,100%
same,IC50,[2]; [14],1.6 µM
same,CC50,HepG2,3.9 µM
Cc1cccc(-c2nc(Nc3ccncn3)c3sccc3n2)n1 [MMV688122],IC50,[1]; [6],0.11 µM
same,IC50,[2]; [8],2.11 µM
same,CC50,HepG2,14.3 µM
CC(=O)NCC1CN(c2ccc(-c3ccc(CNCc4cn[nH]n4)cc3)c(F)c2)C(=O)O1 (stereo not shown) [MMV688327],CC50,HepG2,> 100 µM
